Test results from US20140206629A1, “Stromal Derived Factor Inhibition And CXCR4 Blockade” (RHODE ISLAND HOSPITAL, priority 2011, published 2014).
Entries after “also recorded” stand apart in the source; their conditions may differ.

What was measured:
[1] = test system: human subacromial bursal cells; test: Cytokine stimulation of SDF-1α mRNA expression in cultured bursal cells (RT-PCR); type: cell-based; details: cytokine-treated bursal cells vs controls; maximal at 24 hours
Experimental: (§1) Human subacromial bursal biopsy specimens were obtained as above. Tissues were washed with Hank's balanced salt solution (Gibco), minced with scissors, and resuspended in Dulbecco's minimum essential medium (DMEM, Gibco) containing 1 mg/ml collagenase, 0.15 mg/ml DNase, and 0.15 mg/ml hyaluronidase. The tissue was enzymatically digested for 2 hours at 37° C. and then passed through sterile gauze to remove any undigested fragments. Cells were seeded in 75 cm2 flasks with DMEM supplemented with 10% fetal bovine serum (FBS), 100 U/ml penicillin, 100 μg/ml streptomycin, and 0.1% fungizone (amphotericin B) and grown at 37° C. in a humidified atmosphere of 5% CO2 and 95% air. Subcultures were performed with Trypsin-EDTA treatment (Gibco).
Subacromial bursal cells were cultured as above. […] SDF-1 mRNA was quantified with SDF-1 specific primers SDF-1FOR (5′-GATTGTAGCCCGGCT GAAGAA-3′) (SEQ ID NO: 11) and SDF-1BACK (5′-[…]-3′) (SEQ ID NO: 12). […]
SDF-1 expression was induced by stimulating bursal cells with IL-1β. SDF-1 levels were measured in cell supernatants and mRNA levels were tested using real-time RT-PCR at various time points. […]
(§2) Subacromial bursa specimens were obtained from patients undergoing shoulder surgery. […] Early-passaged cells were then treated with cytokines ([…] and IL-6) and SDF-1α expression was measured by ELISA and RT-PCR.

[2] = test system: human subacromial bursal cells; test: Cytokine stimulation of SDF-1α protein production in cultured bursal cells (ELISA); type: cell-based
Experimental: as §1
SDF-1 expression was induced by stimulating bursal cells with IL-1β. SDF-1 levels were measured in cell supernatants and mRNA levels were tested using real-time RT-PCR at various time points. SDF-1 expression increased with time and occurred in a dose-dependent fashion. […] (FIG. 3) These experiments were reproducible with cells grown from several different tissue samples.
as §2

[3] = test system: IL-1β induced SDF-1 expression in human subacromial bursal cells; test: SDF-1α protein (ELISA) in supernatants of IL-1β-treated cultured bursal cells with inhibitors; type: cell-based; details: bursal cells treated with IL-1β 20 ng/mL plus inhibitor
Experimental: as §1
Subacromial bursal cells were cultured as above. After the first passage, cells were plated into 6-well plates and grown to 85% confluence. Wells were then treated (in triplicate) with IL-1β 20 ng/mL and respective inhibitors (AMD3100, T140 analog, dexamethasone or NSAID). After 24 hours, supernatants were collected and assayed for SDF-1α expression using Quantikineâ Human SDF-1α enzyme immunoassay kit (R & D System) according to the manufacturer's instructions. Standard curves were reconstituted using SDF-1α protein. The optical density of each well was determined using a microplate reader set to 450 nm wavelength. […]

[4] = test system: IL-1β induced SDF-1 mRNA expression in human subacromial bursal cells; test: SDF-1α mRNA (RT-PCR) in IL-1β-treated cultured bursal cells with inhibitors; type: cell-based; details: bursal cells treated with IL-1β plus inhibitor
Experimental: Subacromial bursal cells were cultured as above. First-passaged cells were treated with IL-1β and respective inhibitors as above. Total RNA was isolated using Qiagen RNeasy Mini Kit (Qiagen, Valencia, Calif.). First-strand cDNA was synthesized using 1 μg of total RNA and Superscript III™ First-Strand Synthesis System (Invitrogen). […] All PCR were performed in 25-μl reactions on a DNA Engine Opticon™ 2 Detection System (MJ Research, Hercules, Calif.) for 40 cycles in which each cycles consisted of 15 sec at 95° C., 15 sec at 60° C., and 20 sec at 72° C. Results were standardized to GAPDH housekeeping gene. Statistical analysis was performed using the student's t-test. […]

CCR5 = CCR5 (Homo sapiens, UniProt P51681); details: cited from earlier work
Chain of CCR5 (P51681 whole entry): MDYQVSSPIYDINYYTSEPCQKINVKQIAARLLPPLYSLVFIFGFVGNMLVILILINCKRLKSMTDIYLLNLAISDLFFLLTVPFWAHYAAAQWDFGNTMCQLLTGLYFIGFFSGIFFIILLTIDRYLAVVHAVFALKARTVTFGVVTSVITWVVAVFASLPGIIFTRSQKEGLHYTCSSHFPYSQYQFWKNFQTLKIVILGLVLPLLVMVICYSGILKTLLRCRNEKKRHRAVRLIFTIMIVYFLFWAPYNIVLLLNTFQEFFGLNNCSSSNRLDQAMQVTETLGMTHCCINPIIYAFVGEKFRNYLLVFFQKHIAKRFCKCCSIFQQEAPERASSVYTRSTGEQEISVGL

[5] = test system: human subacromial bursal cells; test: Cell migration assay of bursal cells in response to SDF-1 stimulation; type: cell-based; details: in the presence of CXCR4 inhibitor
Excerpt: FIG. 6 is a bar graph showing cell migration assay of human subacromial bursal cells in the presence of CXCR4 inhibitors AMD3100 and T140.

Excerpt for rat rotator cuff tendons: 58 male Lewis rat shoulders underwent surgery using an IACUC approved protocol. The infraspinatus tendon was transected at its insertion to create a tendon defect (FIG. 7). […] Animals were sacrificed at 3, 7, 14, 28 or 42 days. Eight uninjured rat shoulders were used as controls. Preconditioned for 5 cycles to 0.38 mm displacement in tension at a rate of 0.1 mm/s Stress relaxation test for 300 s duration at 0.38 displacement in tension Return to 0.2 N tension followed by a 300 s latency period Tension to failure at a displacement rate of 0.1 mm/s

Row | Compound | increase in SDF-1α gene (mRNA) expression [1] | increase in SDF-1α protein production/expression ([2]; cytokine-treated bursal cells) | SDF-1α production, maximal stimulation ([2]; exposure to 20 ng/ml IL-1β) | decrease of SDF-1α protein production/expression in supernatants [3] | SDF-1α mRNA expression [4] | binding to chemokine receptor CCR5 (CCR5) | inflammation in the subacromial bursa (rat rotator cuff tendons; rat shoulder with experimentally induced rotator cuff injury) | maximum load in the infraspinatus bone-tendon complex compared to controls (PBS) (rat rotator cuff tendons; rat, osmotic minipump, 3, 7, 14, 28 or 42 days post injury) | bursal cell migration in response to SDF-1 stimulation [5]
1 | IL-1β | nearly five-fold increase; also recorded: more than five-fold increase | more than five-fold increase | 630 pg/10^4 cells |  |  |  |  |  | 
2 | c1cc(CN2CCCNCCNCCCNCC2)ccc1CN1CCCNCCNCCCNCC1 [AMD3100, 1,1′-[1,4-phenylenebis(methylene)]-bis-1,4,8,11-azatetradecane] |  |  |  | 40% | only a slight decrease | does not bind | reduced inflammation | No statistically significant differences | decreased
3 | C[C@@H]1C[C@H]2[C@@H]3CCC4=CC(=O)C=C[C@]4(C)[C@@]3(F)[C@@H](O)C[C@]2(C)[C@@]1(O)C(=O)CO [dexamethasone] |  |  |  | 87% |  |  |  |  | 
